For 15 molecules, IC50 results are on record in patent US7220824B1, “Integrin-mediated drug targeting” (Bayer Aktiengesellschaft, priority 2000, dated 2007).

For orientation: IC50 means the concentration that inhibits the measured activity by half.

Structures are written as SMILES. Read-outs that look alike come from different tables or passages of the source.

In assay [1] the target is T1, αvβ3 receptor (αvβ3 from human A375 cells) (Homo sapiens, UniProt P05106+P06756).
T1 construct: αvβ3 from human A375 cells was purified analogously to a procedure which was described by Wong et al; endogenous in cells; host or cells: human A375 cells; the receptor was purified from the cells and used detergent-solubilised (n-octyl-glucopyranoside)
Put plainly: αvβ3 binding test (echistatin displacement, WGA SPA beads). As for the experimental part:
αvβ3 from human A375 cells was purified analogously to a procedure which was described by Wong et al. (Molecular Pharmacology, 50, 529–537 (1996)). In each case, 10 μl of αvβ3 (5 ng) in TBS pH 7.6, 2 mM CaCl2, 1 mM MgCl2, 1% n-octyl-glucopyranoside (Sigma); 10 μl of test substance in TBS pH 7.6, 0.1% DMSO and 45 μl of TBS pH 7.6, 2 mM CaCl2, 1 mM MgCl2, 1 mM MnCl2 were incubated at room temperature for 1 h. In each case, 25 μl of WGA SPA beads (Amersham, 4 mg/ml) and 10 μl of echistatin ([…], Amersham, chloramine-T labelled) were then added. After 16 hours at room temperature, the samples were measured in a scintillation measuring apparatus (Wallac 1450).

A further assay concerns BT20. Put plainly: Growth inhibition test (MTT), cytotoxic action on tumour cell lines. The class given is cell-based. The note with it: Homo sapiens, BT-20, 144 h, read-out: IC50 values of the cytotoxic action on tumour cell lines, BT20. As to the method: (§1) The human large intestine cell lines SW 480 and HT29 (ATCC No. CCL 228 and HTB38), the human breast cell lines MDA-MB 231, MCF-7 and BT20 (ATCC No. HTB-, 26, 22 and 23) and the mouse melanoma cell line B16F 10 (CRL 6475) were grown to confluence in Roux dishes in RPMI 1640 medium with addition of 10% FCS. They were then trypsinized and taken up in RPMI plus 10% FCS to a cell count of 50,000 cells or, for B16F10, 20,000 cells per ml. 100 μl of cell suspension/well were added to a 96 microwell plate and incubated at 37° C. for 1 day in a CO2 incubator. A further 100 μl of RPMI medium and 1 μl of DMSO were then added with the test substances. The growth was checked after day 6. For this, 25 μl of MTT solution (3-(4,5-dimethylthiazol-2-yl)-2,5-diphenyltetrazolium bromide) was added to each well at a starting concentration of 5 mg/ml of H2O. The plate was incubated at 37° C. for 5 hours in a CO2 incubator. The medium was then aspirated and 100 μl of i-propanol/well were added. After shaking with 100 μl of H2O for 30 min, the extinction was measured at 595-nm using a Multiplate Reader (BIO-RAD 3550-UV).
(§2) The cytostatic action is indicated in Table 2 as an IC50 value, in each case for the individual cell lines.

The next assay relates to MCF7. Described as above. The conditions noted are these: Homo sapiens, MCF7, 144 h, read-out: IC50 values of the cytotoxic action on tumour cell lines, MCF7. The class given is cell-based. As for the experimental part: as §1, §2
In a further assay the test system is SW480. Described as above. The class given is cell-based. The conditions noted are these: Homo sapiens, SW480, 144 h, read-out: IC50 values of the cytotoxic action on tumour cell lines, SW480. As to the method: as §1, §2
A further assay has as its system MDA-MB 231. Described as above. The class given is cell-based. The conditions noted are these: Homo sapiens, MDA-MB-231, 144 h, read-out: IC50 values of the cytotoxic action on tumour cell lines, MDA-MB 231. As to the method: as §1, §2
The next assay deals with HT 29. The assay is described as above. The class given is cell-based. The conditions noted are these: Homo sapiens, HT-29, 144 h, read-out: IC50 values of the cytotoxic action on tumour cell lines, HT 29. As for the experimental part:
as §1, §2

A further assay concerns B16F10. Described as above. The note with it: Mus musculus, B16-F10, 144 h, read-out: IC50 values of the cytotoxic action on tumour cell lines, B16F10. It counts as cell-based. As to the method:
as §1, §2

The mark [2] stands for this setting: αvβ3 purified from human A375 cells, labelled echistatin, read-out: IC50 values of the binding to the αvβ3 receptor.

T1 sequence (P06756 31-889 limits assumed): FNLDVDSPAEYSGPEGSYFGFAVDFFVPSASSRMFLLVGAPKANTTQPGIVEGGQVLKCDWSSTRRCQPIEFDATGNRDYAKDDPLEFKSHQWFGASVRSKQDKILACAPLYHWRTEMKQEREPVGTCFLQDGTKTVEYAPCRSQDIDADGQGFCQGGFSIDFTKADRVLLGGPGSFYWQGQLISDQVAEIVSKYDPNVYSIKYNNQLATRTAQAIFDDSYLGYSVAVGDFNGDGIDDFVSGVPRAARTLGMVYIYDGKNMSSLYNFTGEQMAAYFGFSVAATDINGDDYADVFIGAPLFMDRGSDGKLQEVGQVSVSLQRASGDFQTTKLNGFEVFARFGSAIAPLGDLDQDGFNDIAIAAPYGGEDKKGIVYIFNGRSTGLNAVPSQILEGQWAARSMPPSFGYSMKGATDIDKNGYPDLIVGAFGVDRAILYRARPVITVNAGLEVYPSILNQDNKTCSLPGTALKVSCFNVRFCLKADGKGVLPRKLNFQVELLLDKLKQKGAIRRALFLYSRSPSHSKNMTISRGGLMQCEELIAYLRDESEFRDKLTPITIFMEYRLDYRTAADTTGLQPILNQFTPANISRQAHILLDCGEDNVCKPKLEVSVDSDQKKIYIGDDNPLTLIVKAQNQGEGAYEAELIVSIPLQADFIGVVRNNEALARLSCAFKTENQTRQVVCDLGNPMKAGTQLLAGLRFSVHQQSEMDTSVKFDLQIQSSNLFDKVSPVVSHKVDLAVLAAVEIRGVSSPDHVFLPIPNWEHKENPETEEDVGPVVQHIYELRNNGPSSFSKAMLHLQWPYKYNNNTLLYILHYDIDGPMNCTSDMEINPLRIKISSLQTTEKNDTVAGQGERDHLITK
T1 sequence (P06756 891-1048 partner limits assumed): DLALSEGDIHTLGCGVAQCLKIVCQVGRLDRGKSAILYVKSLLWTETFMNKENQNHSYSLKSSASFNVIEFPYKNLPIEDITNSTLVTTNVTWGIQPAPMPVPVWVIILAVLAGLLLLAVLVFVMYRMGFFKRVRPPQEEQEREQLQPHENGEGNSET
T1 sequence (P05106 27-788): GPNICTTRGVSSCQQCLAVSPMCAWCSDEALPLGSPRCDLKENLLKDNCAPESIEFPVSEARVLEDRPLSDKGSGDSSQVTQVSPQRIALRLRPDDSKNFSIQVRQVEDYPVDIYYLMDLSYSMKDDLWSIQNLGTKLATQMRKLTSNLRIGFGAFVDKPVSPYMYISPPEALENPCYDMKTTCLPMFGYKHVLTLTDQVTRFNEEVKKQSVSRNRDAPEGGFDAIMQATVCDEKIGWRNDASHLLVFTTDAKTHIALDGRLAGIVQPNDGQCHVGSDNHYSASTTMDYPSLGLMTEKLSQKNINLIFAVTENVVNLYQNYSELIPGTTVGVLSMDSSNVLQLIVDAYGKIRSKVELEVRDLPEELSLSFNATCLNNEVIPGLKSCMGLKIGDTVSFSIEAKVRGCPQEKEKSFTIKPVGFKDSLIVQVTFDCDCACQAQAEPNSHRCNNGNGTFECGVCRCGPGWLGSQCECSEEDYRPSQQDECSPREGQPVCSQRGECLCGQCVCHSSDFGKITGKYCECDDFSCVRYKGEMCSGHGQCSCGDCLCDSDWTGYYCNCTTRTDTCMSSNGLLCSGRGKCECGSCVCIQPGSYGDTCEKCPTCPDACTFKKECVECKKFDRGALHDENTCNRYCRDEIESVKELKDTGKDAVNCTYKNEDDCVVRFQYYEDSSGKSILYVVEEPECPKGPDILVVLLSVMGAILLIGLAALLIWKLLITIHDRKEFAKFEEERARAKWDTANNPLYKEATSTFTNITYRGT

For `CC[C@@]1(OC(=O)[C@@H](NC(=O)[C@H](CCCCNC(=O)CC(NC(=O)CNC(=O)c2cccc(NC(=N)N)c2)c2ccccc2)NC(=S)Nc2ccccc2)C(C)C)C(=O)OCc2c1cc1n(c2=O)Cc2cc3ccccc3nc2-1` (stereo partly shown) [Example 1.1], the IC50 in assay [1] (setting [2]) amounted to 873 nM; in the assay on BT20, 150 nM; with MCF7, 90 nM; with SW480, 200 nM; with MDA-MB 231, 100 nM; in the assay with HT 29, 120 nM.

As to `CC[C@@]1(OC(=O)[C@@H](NC(=O)CC[C@H](NC(=O)CC(NC(=O)CNC(=O)c2cccc(NC(=N)N)c2)c2ccccc2)C(=O)O)C(C)C)C(=O)OCc2c1cc1n(c2=O)Cc2cc3ccccc3nc2-1` (stereo partly shown) [Example 1.2], the IC50 is 679 nM in assay [1] (setting [2]); 100 nM in the assay on BT20; 60 nM with MCF7; 600 nM in the assay on SW480; 20 nM with MDA-MB 231; 4000 nM with B16F10. For the same molecule, the IC50 in the assay with HT 29 turned out to be 500 nM.

For `CC[C@@]1(OC(=O)[C@@H](NC(=O)[C@H](CCCCN)NC(=S)Nc2cccc(C(=O)NCC(=O)NC(CC(=O)O)c3ccccc3)c2)C(C)C)C(=O)OCc2c1cc1n(c2=O)Cc2cc3ccccc3nc2-1` (stereo partly shown) [Example 2.1], the IC50 came to 1450 nM in assay [1] (setting [2]); 100 nM in the assay on BT20; 70 nM in the assay with MCF7; 150 nM in the assay on SW480; 60 nM in the assay with MDA-MB 231; 400 nM in the assay on B16F10. For the same molecule, the IC50 in the assay on HT 29 was found to be 90 nM.

Take `CC[C@@]1(OC(=O)[C@@H](NC(=O)[C@H](CCC(=O)O)NC(=S)Nc2cccc(C(=O)NCC(=O)NC(CC(=O)O)c3ccccc3)c2)C(C)C)C(=O)OCc2c1cc1n(c2=O)Cc2cc3ccccc3nc2-1` (stereo partly shown) [Example 2.2]: the IC50 in assay [1] (setting [2]) stood at 1500 nM; with BT20 it was 400 nM; in the assay on MCF7 it was 300 nM; in the assay on SW480, 500 nM; with MDA-MB 231, 300 nM; in the assay with HT 29 it was 300 nM.

For the molecule `CC[C@@]1(OC(=O)[C@@H](NC(=O)[C@H](Cc2c[nH]cn2)NC(=S)Nc2cccc(S(=O)(=O)Nc3cccc(C(CC(=O)O)NS(=O)(=O)c4ccccc4)c3)c2)C(C)C)C(=O)OCc2c1cc1n(c2=O)Cc2cc3ccccc3nc2-1` (stereo partly shown) [Example 2.3], the IC50 was found to be 697 nM in assay [1]; 80 nM in the assay on BT20; 60 nM with MCF7; 120 nM in the assay with SW480; 20 nM with MDA-MB 231; 70 nM in the assay on HT 29.

With `CC[C@@]1(OC(=O)C(NC(=O)C(Cc2cnc[nH]2)NC(=S)Nc2cccc(-c3ccc(C[C@H](NS(=O)(=O)CC45CCC(CC4=O)C5(C)C)C(=O)O)cc3)c2)C(C)C)C(=O)OCc2c1cc1n(c2=O)Cc2cc3ccccc3nc2-1` (stereo partly shown) [Example 2.4], the IC50 stood at 110 nM in assay [1] (setting [2]); 1500 nM in the assay with BT20; 800 nM in the assay with MCF7; 400 nM in the assay with SW480; 400 nM in the assay on MDA-MB 231; 500 nM in the assay on B16F10. For the same molecule, the IC50 in the assay with HT 29 was found to be 300 nM.

Take `CC[C@@]1(OC(=O)C(NC(=O)C(CCCCN)NC(=S)Nc2cccc(-c3ccc(C[C@H](NS(=O)(=O)CC45CCC(CC4=O)C5(C)C)C(=O)O)cc3)c2)C(C)C)C(=O)OCc2c1cc1n(c2=O)Cc2cc3ccccc3nc2-1` (stereo partly shown) [Example 2.5]: the IC50 in assay [1] (setting [2]) worked out at 190 nM; in the assay on BT20 it was 400 nM; in the assay with MCF7, 300 nM; in the assay on SW480, 200 nM; with MDA-MB 231, 300 nM; with B16F10, 400 nM. For the same molecule, the IC50 with HT 29 was 300 nM.

`CC[C@@]1(OC(=O)[C@@H](NC(=O)[C@H](CCCCNC(=O)OCC2c3ccccc3-c3ccccc32)NC(=O)Nc2cccc(-c3ccc(C[C@H](NS(=O)(=O)CC45CCC(CC4=O)C5(C)C)C(=O)O)cc3)c2)C(C)C)C(=O)OCc2c1cc1n(c2=O)Cc2cc3ccccc3nc2-1` (stereo partly shown) [Example 2.6]: the IC50 in assay [1] came out at 239 nM; with BT20, 9000 nM; in the assay with MCF7, 5000 nM; in the assay with SW480 it was 3000 nM; with MDA-MB 231, 3000 nM; in the assay on B16F10 it was 10000 nM. In the assay on HT 29, the IC50 is 3000 nM.

Consider `CC[C@@]1(OC(=O)[C@@H](NC(=O)[C@H](Cc2cnc[nH]2)NC(=O)Nc2cccc(-c3ccc(C[C@H](NS(=O)(=O)CC45CCC(CC4=O)C5(C)C)C(=O)O)cc3)c2)C(C)C)C(=O)OCc2c1cc1n(c2=O)Cc2cc3ccccc3nc2-1` (stereo partly shown) [Example 2.7], for which the IC50 in assay [1] was found to be 86 nM; in the assay on BT20, 5000 nM; in the assay on MCF7 it was 800 nM; with SW480, 900 nM; in the assay on MDA-MB 231 it was 900 nM; in the assay with B16F10, 3000 nM. In the assay with HT 29, the IC50 was found to be 600 nM.

As for `CC[C@@]1(OC(=O)[C@@H](NC(=O)Nc2cccc(-c3ccc(C[C@H](NS(=O)(=O)CC45CCC(CC4=O)C5(C)C)C(=O)O)cc3)c2)C(C)C)C(=O)OCc2c1cc1n(c2=O)Cc2cc3ccccc3nc2-1` (stereo partly shown) [Example 2.8], the IC50 in assay [1] (setting [2]) stood at 83 nM; in the assay on BT20, 9 nM; in the assay on MCF7, 10 nM; in the assay on SW480 it was 20 nM; in the assay on MDA-MB 231, 15 nM; in the assay on B16F10, 200 nM. For the same molecule, in the assay on HT 29, the IC50 is 10 nM.

Take `CC[C@@]1(OC(=O)[C@@H](NC(=O)[C@H](CCCCNC(=O)OCC2c3ccccc3-c3ccccc32)NC(=O)Nc2cccc(-c3cccc(S(=O)(=O)NC(CC(=O)O)c4ccccc4)c3)c2)C(C)C)C(=O)OCc2c1cc1n(c2=O)Cc2cc3ccccc3nc2-1` (stereo partly shown) [Example 2.9]: the IC50 in assay [1] is 236 nM; in the assay on BT20, 1500 nM; in the assay on MCF7, 300 nM; in the assay with SW480, 1000 nM; with MDA-MB 231, 700 nM; in the assay with B16F10 it was 300 nM. Moreover, the IC50 with HT 29 stood at 700 nM.

In the case of `CC[C@@]1(OC(=O)[C@@H](NC(=O)[C@H](Cc2c[nH]cn2)NC(=O)Nc2cccc(-c3cccc(S(=O)(=O)NC(CC(=O)O)c4ccccc4)c3)c2)C(C)C)C(=O)OCc2c1cc1n(c2=O)Cc2cc3ccccc3nc2-1` (stereo partly shown) [Example 2.10], the IC50 in assay [1] (setting [2]) stood at 101 nM; in the assay with BT20, 1000 nM; in the assay with MCF7, 1500 nM; with SW480, 1000 nM; with MDA-MB 231 it was 400 nM; in the assay on B16F10, 2000 nM. In addition, the half-maximal inhibitory concentration (IC50) with HT 29 turned out to be 700 nM.

On to `CCC1(OC(=O)[C@@H](NC(=O)[C@H](Cc2c[nH]cn2)NC(=O)Nc2cccc(-c3ccc(S(=O)(=O)NC(CC(=O)O)c4ccccc4)cc3)c2)C(C)C)C(=O)OCc2c1cc1n(c2=O)Cc2cc3ccccc3nc2-1` (stereo partly shown) [Example 2.11], for which the IC50 in assay [1] (setting [2]) stood at 197 nM; with BT20 it was 400 nM; with MCF7, 500 nM; in the assay on SW480, 600 nM; in the assay with MDA-MB 231, 600 nM; with B16F10 it was 800 nM. In addition, the IC50 with HT 29 came out at 400 nM.

For the molecule `CC[C@@]1(OC(=O)[C@@H](NC(=O)[C@H](Cc2c[nH]cn2)NC(=S)Nc2ccc(C(=O)NC(CC(=O)O)c3cccc(NS(=O)(=O)c4cccc(NC(=N)N)c4)c3)cc2)C(C)C)C(=O)OCc2c1cc1n(c2=O)Cc2cc3ccccc3nc2-1` (stereo partly shown) [Example 3.3], the IC50 in assay [1] is 45 nM; in the assay with BT20, 150 nM; in the assay with MCF7, 100 nM; in the assay on SW480 it was 300 nM; in the assay on MDA-MB 231, 100 nM; with HT 29, 90 nM.

On to `CC[C@@]1(O)C(=O)OCc2c1cc1n(c2=O)Cc2cc3c(NC(=S)NC(CC(=O)O)c4cccc(NS(=O)(=O)c5cccc(NC(=N)N)c5)c4)cccc3nc2-1` (stereo partly shown) [Example 3.17], for which the IC50 amounted to 66 nM in assay [1] (setting [2]); 5000 nM with BT20; 800 nM in the assay on SW480; 3000 nM in the assay with MDA-MB 231; 5000 nM with B16F10; 600 nM with HT 29.
